The text below walks through data of patent US9404081B2, “Pyruvate kinase activators for use in therapy” (AGIOS PHARMACEUTICALS, INC., priority 2011, dated 2016).

Holding throughout (assay type): biochemical
The target in assay [1] is PKR R532W (Homo sapiens, UniProt P30613, R532W). In words: PKR R532W Single Point Percent Activation Assay. The settings on record: read-out: Act, % 532W. How it is done:
PKR R532W Single Point Percent Activation Assay
(§1) A compound described herein was diluted with DMSO and tested at 1 μM concentration. The enzyme was diluted in 1× Buffer: (100 mM KCl, 50 mM Tris 7.5, 5 mM MgCl2, 1 mM DTT, 0.03% BSA). 2 μL of compound solution was first added into wells, and then 180 μL of enzyme solution was added. Assays were assembled except for ADP, and plates were stored for 60 minutes at RT. 20 μL ADP was added to start the assay and assay output was evaluated using OD340 at SpectraMax. The assay was run at room temperature.
Final concentration: PKR R532W (100 ng/well), Tris pH 7.5 (50 mM), KCl (100 mM), MgCl2 (5 mM), ADP (0.36 mM), PEP (0.1 mM), NADH (180 μM), LDH (0.5 units, Sigma 59023), DTT (1 mM) and BSA (0.03%).

The target in assay [2] is PKR T384W (Homo sapiens, UniProt P30613, T384W). In words: PKR T384W Single Point Percent Activation Assay. The settings on record: read-out: Act. % 384W. On the procedure:
PKR T384W Single Point Percent Activation Assay
A compound described herein was diluted with DMSO and tested at 1 μM concentration. The enzyme was diluted in 1× Buffer: (100 mM KCl, 50 mM Tris 7.5, 5 mM MgCl2, 1 mM DTT, 0.03% BSA). 2 μL of compound solution was first added into wells, and then 180 μL enzyme solution was added. Assays were assembled except for ADP, and plates were stored for 60 minutes at RT. 20 μL ADP was added to start the assay and assay output was evaluated using OD340 at SpectraMax. The assay was run at room temperature.
Final concentration: PKR T384W soluble (300 ng/well), Tris pH 7.5 (50 mM), KCl (100 mM), MgCl2 (5 mM), ADP (0.08 mM), PEP (0.23 mM), NADH (180 μM), LDH (0.5 units, Sigma 59023), DTT (1 mM) and BSA (0.03%).

The target in assay [3] is PKR wt (Homo sapiens, UniProt P30613). In words: PKR WT Single Point Percent Activation Assay. How it is done: PKR WT Single Point Percent Activation Assay
as §1
Final concentration: PKR wt (100 ng/well), Tris pH 7.5 (50 mM), KCl (100 mM), MgCl2 (5 mM), ADP (0.48 mM), PEP (0.15 mM), NADH (180 μM), LDH (0.5 units, Sigma 59023), DTT (1 mM) and BSA (0.03%).

In assay [4] the target is PKR R510Q (Homo sapiens, UniProt P30613, R510Q). The assay is described as follows: PKR R510Q Single Point Percent Activation Assay. The settings on record: read-out: Act. % 510Q. On the procedure: PKR R510Q Single Point Percent Activation Assay
as §1
Final concentration: PKR R510Q (40 ng/well), Tris pH 7.5 (50 mM), KCl (100 mM), MgCl2 (5 mM), ADP (0.2 mM), PEP (0.11 mM), NADH (180 μM), LDH (0.5 units, Sigma 59023), DTT (1 mM) and BSA (0.03%).

PKR R532W, sequence (P30613 whole entry R532W): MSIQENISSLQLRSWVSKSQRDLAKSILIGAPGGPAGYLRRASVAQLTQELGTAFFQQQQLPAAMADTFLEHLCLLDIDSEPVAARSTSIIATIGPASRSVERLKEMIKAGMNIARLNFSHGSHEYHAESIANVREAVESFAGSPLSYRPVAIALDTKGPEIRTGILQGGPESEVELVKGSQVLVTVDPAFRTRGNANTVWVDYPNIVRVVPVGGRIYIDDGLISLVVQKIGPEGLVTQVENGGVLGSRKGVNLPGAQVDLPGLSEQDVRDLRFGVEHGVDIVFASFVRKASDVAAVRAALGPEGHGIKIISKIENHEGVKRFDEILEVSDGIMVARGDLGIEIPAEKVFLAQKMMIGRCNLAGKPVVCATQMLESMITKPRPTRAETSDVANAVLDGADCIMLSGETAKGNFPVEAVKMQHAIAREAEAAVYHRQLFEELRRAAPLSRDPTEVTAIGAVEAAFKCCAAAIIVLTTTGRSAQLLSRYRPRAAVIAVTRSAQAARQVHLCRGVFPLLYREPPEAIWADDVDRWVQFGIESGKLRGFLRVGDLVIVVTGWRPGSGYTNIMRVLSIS
PKR wt, sequence (P30613 whole entry): as the sequence (P30613 whole entry R532W) above, with W532R counted along it
PKR R510Q, sequence (P30613 whole entry R510Q): as the sequence (P30613 whole entry R532W) above, with R510Q, W532R counted along it
PKR T384W, sequence (P30613 whole entry T384W): as the sequence (P30613 whole entry R532W) above, with T384W, W532R counted along it

On to `C[C@@H]1CN(C(=O)c2ccc(NS(=O)(=O)c3cccc4cccnc34)cc2)CCN1C(=O)c1ccccn1`, for which the activation at 1 µM in assay [1] is 1 to 100%; in assay [2], 101 to 500%; in assay [3], 101 to 500%; in assay [4], 1 to 100%.
With `C[C@@H]1CN(C(=O)c2ccc(NS(=O)(=O)c3cccc4cccnc34)cc2)C[C@H](C)N1C(=O)c1ccccn1`, the activation at 1 µM in assay [1], in assay [2], in assay [3] and in assay [4] was 101 to 500% throughout.
`CC(c1c(F)ccc(F)c1F)N1CCN(C(=O)c2ccc(NS(=O)(=O)c3cccc4cccnc34)cc2)[C@H](C)C1` (some centres unmarked): the activation at 1 µM in assay [1] is 101 to 500%; in assay [2], 101 to 500%; in assay [3], 101 to 500%; in assay [4], 1 to 100%.
Consider `CC(c1ccc(F)cc1Cl)N1CCN(C(=O)c2ccc(NS(=O)(=O)c3cccc4cccnc34)cc2)[C@H](C)C1` (some centres unmarked), for which the activation at 1 µM fell in the range of 101 to 500% in assay [1], 101 to 500% in assay [2], 101 to 500% in assay [3] and 1 to 100% in assay [4].
With `CC(c1c(F)ccc(F)c1F)N1CCN(C(=O)c2ccc(NS(=O)(=O)c3cccc4cccnc34)cc2)[C@@H](C)C1` (some centres unmarked), the activation at 1 µM fell in the range of 101 to 500% in assay [1], 101 to 500% in assay [2], 1 to 100% in assay [3] and 1 to 100% in assay [4].
Turning to `O=C1CN(Cc2cc(F)cc(F)c2)CCN1C(=O)c1ccc(NS(=O)(=O)c2cccc3cccnc23)cc1`, the activation at 1 µM in assay [1] was in the range of 101 to 500%; in assay [2], 101 to 500%; in assay [3], 101 to 500%; in assay [4], 1 to 100%.
`CC1CN(Cc2cc(F)cc(F)c2)CC(C)N1C(=O)c1ccc(NS(=O)(=O)c2cccc3cccnc23)cc1` (centres unmarked): the activation at 1 µM in assay [1] was 101 to 500%; in assay [2], 1 to 100%; in assay [3], 1 to 100%; in assay [4], 101 to 500%.
For `CC1CN(CC2CC2)CC(C)N1C(=O)c1ccc(NS(=O)(=O)c2cccc3cccnc23)cc1` (centres unmarked), the activation at 1 µM was in the range of 101 to 500% in assay [1], 101 to 500% in assay [2], 101 to 500% in assay [3] and 1 to 100% in assay [4].
`CC1CN(Cc2ccc(F)cc2)CC(C)N1C(=O)c1ccc(NS(=O)(=O)c2cccc3cccnc23)cc1` (centres unmarked): the activation at 1 µM in assay [1] fell in the range of 101 to 500%; in assay [2] it was 1 to 100%; in assay [3] it was 1 to 100%; in assay [4], 1 to 100%.
Turning to `CC1CN(Cc2ccc(Cl)c(F)c2)CC(C)N1C(=O)c1ccc(NS(=O)(=O)c2cccc3cccnc23)cc1` (centres unmarked), the activation at 1 µM in assay [1] is 1 to 100%; in assay [2], 101 to 500%; in assay [3], 101 to 500%; in assay [4] it was 101 to 500%.
As for `CC1CN(CC2CCCCC2)CC(C)N1C(=O)c1ccc(NS(=O)(=O)c2cccc3cccnc23)cc1` (centres unmarked), the activation at 1 µM in assay [1], in assay [2], in assay [3] and in assay [4] was 101 to 500% each time.
Consider `CC1CN(Cc2c(F)ccc(F)c2F)CC(C)N1C(=O)c1ccc(NS(=O)(=O)c2cccc3cccnc23)cc1` (centres unmarked), for which the activation at 1 µM in assay [1] is 101 to 500%; in assay [2], 1 to 100%; in assay [3], 1 to 100%; in assay [4], 1 to 100%.
For the compound `CC1CN(Cc2cc(F)cc(F)c2F)CC(C)N1C(=O)c1ccc(NS(=O)(=O)c2cccc3cccnc23)cc1` (centres unmarked), the activation at 1 µM in assay [1], in assay [2], in assay [3] and in assay [4] was 101 to 500% each time.
Take `CC1CN(Cc2cc(F)c(F)c(F)c2)CC(C)N1C(=O)c1ccc(NS(=O)(=O)c2cccc3cccnc23)cc1` (centres unmarked): the activation at 1 µM lay within 101 to 500% in assay [1], 1 to 100% in assay [2], 1 to 100% in assay [3] and 1 to 100% in assay [4].
On to `CC1CN(Cc2c(F)cc(F)cc2F)CC(C)N1C(=O)c1ccc(NS(=O)(=O)c2cccc3cccnc23)cc1` (centres unmarked), for which the activation at 1 µM is 101 to 500% in assay [1], 1 to 100% in assay [2], 101 to 500% in assay [3] and 101 to 500% in assay [4].
With `CC1CN(Cc2cc(F)c(F)cc2F)CC(C)N1C(=O)c1ccc(NS(=O)(=O)c2cccc3cccnc23)cc1` (centres unmarked), the activation at 1 µM in assay [1] was 1 to 100%; in assay [2], 1 to 100%; in assay [3], 101 to 500%; in assay [4], 101 to 500%.
As for `CC1CN(CC2CCOC2)CC(C)N1C(=O)c1ccc(NS(=O)(=O)c2cccc3cccnc23)cc1` (centres unmarked), the activation at 1 µM fell in the range of 1 to 100% in assay [1], 1 to 100% in assay [2], 1 to 100% in assay [3] and 101 to 500% in assay [4].
Take `C[C@@H]1CN(CC2CCC2)CCN1C(=O)c1ccc(NS(=O)(=O)c2cccc3cccnc23)cc1`: the activation at 1 µM in assay [1] was 101 to 500%; in assay [2], 1 to 100%; in assay [3], 101 to 500%; in assay [4] it was 101 to 500%.
Regarding `C[C@H]1CN(CC2CCC2)CCN1C(=O)c1ccc(NS(=O)(=O)c2cccc3cccnc23)cc1`, the activation at 1 µM in assay [1], in assay [2], in assay [3] and in assay [4] was 101 to 500% each time.
As to `C[C@@H]1CN(C[C@@H]2CCCO2)CCN1C(=O)c1ccc(NS(=O)(=O)c2cccc3cccnc23)cc1`, the activation at 1 µM in assay [1], in assay [2], in assay [3] and in assay [4] was 101 to 500% throughout.
Take `C[C@@H]1CN(C[C@H]2CCCO2)CCN1C(=O)c1ccc(NS(=O)(=O)c2cccc3cccnc23)cc1`: the activation at 1 µM in assay [1] fell in the range of 101 to 500%; in assay [2], 101 to 500%; in assay [3], 101 to 500%; in assay [4], 1 to 100%.
Regarding `O=C(c1ccc(NS(=O)(=O)c2cccc3cccnc23)cc1)N1C2CCC1CN(Cc1ccccc1)C2`, the activation at 1 µM in assay [1], in assay [2], in assay [3] and in assay [4] was 101 to 500% each time.
In the case of `O=C1CN(C(=O)c2ccc(NS(=O)(=O)c3cccc4cccnc34)cc2)CCN1CC1CC1`, the activation at 1 µM in assay [1] is 1 to 100%; in assay [2], 101 to 500%; in assay [3], 101 to 500%; in assay [4] it was 1 to 100%.
As for `O=C1CN(C(=O)c2ccc(NS(=O)(=O)c3cccc4cccnc34)cc2)CCN1Cc1cc(F)cc(F)c1`, the activation at 1 µM in assay [1], in assay [2], in assay [3] and in assay [4] was 101 to 500% each time.
With `O=C(c1ccc(NS(=O)(=O)c2cccc3cccnc23)cc1)N1CC2CCC(C1)N2Cc1cc(F)cc(F)c1`, the activation at 1 µM in assay [1] fell in the range of 1 to 100%; in assay [2], 101 to 500%; in assay [3], 101 to 500%; in assay [4], 101 to 500%.
For `O=C(c1ccc(NS(=O)(=O)c2cccc3cccnc23)cc1)N1CC2CCC(C1)N2Cc1ccc(F)cc1`, the activation at 1 µM in assay [1] is 1 to 100%; in assay [2], 1 to 100%; in assay [3], 101 to 500%; in assay [4], 101 to 500%.
For `O=C(c1ccc(NS(=O)(=O)c2cccc3cccnc23)cc1)N1CC2CCC(C1)N2Cc1ccccc1`, the activation at 1 µM in assay [1], in assay [2], in assay [3] and in assay [4] was 101 to 500% throughout.
With `O=C(c1ccc(NS(=O)(=O)c2cccc3cccnc23)cc1)N1CC2CCC(C1)N2CC1CC1`, the activation at 1 µM in assay [1] was in the range of 101 to 500%; in assay [2], 101 to 500%; in assay [3], 1 to 100%; in assay [4], 101 to 500%.
Turning to `O=C(c1ccc(NS(=O)(=O)c2cccc3cccnc23)cc1)N1CCn2c(nnc2-c2cc(F)cc(F)c2)C1`, the activation at 1 µM in assay [1], in assay [2], in assay [3] and in assay [4] was 101 to 500% throughout.
